# Reference: patent publication US9322034B2, “Compositions and methods for detecting and modulating cell death by a translation regulated gene expression system” (Wayne State University, priority 2007, dated 2016)
# Key:
# [1] = system: HEK293 cell pools expressing the fLUC-TRplp-EYFP, fLUC-TRdm-EYFP, pcuLf-TRplp-EYFP or pcuLf-TRdm-EYFP expression cassettes; experiment: Cytotoxicity assay by Western blot, bicistronic TR cassettes; format: cell-based, human; details: toxic doses
# [2] = system: HEK293 TRplp-EYFP and TRplp-fLUC colonies; experiment: Microplate reader screen at fixed time and toxin concentration; format: cell-based, human; details: 12 hr
# Method: For this example, HEK293 cells expressing the TRplp-EYFP, TRdm-EYFP, TRplp fLUC and TRdm-fLUC expression cassettes are evaluated using a microplate reader. To quantitate the TR translational response, 24,000 cells are plated in a 96-well microtiter plates and allowed to grow for about 40 hr to achieve the proper cell density prior to incubation with a toxic agent. Each well is cultured with complete DMEM medium containing either no toxin or a defined concentration of toxin and incubated at 37 C for specific time periods. At that time, fluorescence or chemiluminescence on a FLUOstar Optima (BMG Labtech) microplate reader is used measure TR-ORF response.
# Direct detection of the spontaneously fluorescent EYFP protein fluorophore is achieved by excitation of samples in black optical bottom 96-well trays with a fluorescein filter (545 nm) or a YFP filter (YFPex) and emission measured at 590 nm or 544 nm using gains of 1000-2000. To reduce the background fluorescence associated with media components, the trays are centrifuged at 1200 rpm, RT for 3 min to collect any floating cells, and the media replaced with 200 microliters of 1×PBS prior to detection. For the fLUC protein, protein activity is quantified by luminescence produced during live cell or lysed cell luciferase assays. […] Luminescence was detected using lens filter at gains of 2000-3000. […]
smiles,measurement,setting,value
CNc1ccc2oc(C[C@H]3O[C@@]4(CC[C@H]3C)O[C@H]([C@H](C)C(=O)c3ccc[nH]3)[C@H](C)C[C@H]4C)nc2c1C(=O)O [calcium ionophore A23187],"EYFP translation in cell pools expressing the bicistronic TR cassettes (Western blot, FIG. 4)",[1],induce EYFP translation
same,TR response in screening assay,"[2]; HEK293 TRplp-EYFP subclone #41, 6.7 micromolar",significant TR responses
same,TR response in screening assay,"[2]; HEK293 TRplp-fLUC subclone #3, 6.7 micromolar, live cell assay",significant TR responses
